Key:
[1] = tested on: Escherichia coli, ATCC 11229; assay: Biocidal effect, dosage response and synergy (reduction in CFU after exposure to biocide); assay type: cell-based; settings: 9 minutes at 30° C.; for Reduction obtained in E. coli: pH 6-6.5, factor of reduction in CFU
Description: (§1) The assay is based on the requirements to chemical disinfectants and antiseptic agent with regard to a reduction in fungus and bacteria of 4 and 5 log units respectively. These requirements are stated in DS/EN 1276:1997 and DS/EN 1275:2005, respectively.
(§2) The following microorganisms were chosen for this dosage response assays: Staphylococcus aureus, ATCC 6538, representing grampositive bacteria; Escherichia coli, ATCC 11229, representing gramnegative bacteria; and Candida albicans, ATCC 2091, representing yeast fungi.
(§3) The bacterial cultures were cultivated in the growth medium TSB (Tryptic Soy Bouillon) for 24 h at 37° C. before use. Colony forming units (CFU) were determined by plating Tryptic Soy Agar (TSA).
(§4) The exposure to biocide was performed at pH 6-6.5, which was obtained by addition of 100 mM potassium phosphate buffer. To test tubes with 8 mL sterile 100 mM phosphate buffer were added 1 mL test solution (i.e. biocide solution) and 1 mL stock culture. After thorough mixing the assay mixtures were exposed to heating in water bath at 30° C. for 9 minutes. After exposure the test tubes were immediately removed from the water bath and the surviving microorganisms were determined by plating.
(§5) Reference samples were prepared by adding 1 mL sterile water instead of 1 mL test solution.
(§6) From appropriate dilutions of starting material (mixture of biocide solution, stock culture and buffer) was taken 0.1 mL onto agar plates, and the material was spread with Drigalski spatulas. The plates were incubated at 37° C. 1 day for bacteria and 2 days for yeast.
(§7) For determining CFU of the bacteria after exposure, with and without biocide, was used incubation on TSA for 24 h at 37° C. For determining CFU of Candida albicans before and after exposure was used incubation on MEA for 48 h at 37° C.
(§8) Where a large reduction in organisms was expected (test concentrations of 700 and 200 ppm) 1 mL and 0.1 mL solution, respectively, were mixed with 100 ml sterile water and filtered through a 47 mm Millipore EZ-Pak® membrane filter, mesh 0.22 μm. The filter was rinsed with 100 mL sterile water, and thereafter placed directly on the agar plate. The mixing in water and subsequent rinsing ensures that the biocide is heavily diluted and thus will not have any effect after plating. For dilutions of 100× and more, regular plating were used, as the biocide at these concentrations is considered to not provide any further reduction in the microorganisms during plating on agar.
(§9) Plates with between 20 and 500 CFU were chosen for counting. Number of CFU (colony forming units) per g or mL sample was calculated by multiplying the number of colonies per plate with the dilution and further by 10, as only 0.1 mL was used on each plate.
(§10) After incubation, CFU was determined and reduction in organisms was calculated. All tests were performed in triplicate.
(§11) The optimal biocides, Bardap-26 and Akacid Forte, found in Example 4A, were further assayed for synergistically effect. Bardap-26 and Akacid Forte was mixed in a 50:50 ratio, and the applied concentrations can be seen from Table 5. The methods and solutions were otherwise as described in example 4A herein.

[2] = tested on: Staphylococcus aureus, ATCC 6538; assay: as above; assay type: cell-based; settings: 9 minutes at 30° C.; for Reduction obtained in Staphylococcus Aureus: pH 6-6.5, factor of reduction in CFU
Description: as §1, §2, §3, §4, §5, §6, §7, §8, §9, §10, §11

[3] = tested on: Candida albicans, ATCC 2091; assay: as above; assay type: cell-based; settings: 9 minutes at 30° C.; for Reduction obtained in Candida Albicans: pH 6-6.5, factor of reduction in CFU
Description: as §1, §2
Candida albicans was cultivated on malt extract agar (MEA) for 24 h at 37° C. before use. Then the yeast cells were harvested in 0.9% saline by use of a drigalski spatula. CFU were determined by plating on MEA.
as §4, §5, §6, §7, §8, §9, §10, §11

[4] = Critical micelle concentration by Sudan Black B absorbance at 600 nm; assay type: physicochemical; settings: data not shown
Procedure: The critical micelle concentration is measured using Sudan Black B dissolved in the test solutions at different concentrations. Sudan Black B is dissolvable in micelles, only. A difference in the absorbance measured is thus a valid measure of the critical micelle concentration in the test solutions. Absorbance was measured using a Shimadzu UV-1800 spectrofotometer and the absorbance is measured at 600 nm. Dilutions were made in water and Sudan Black B by adding first water, then Sudan Black B and at last the test solutions to 4 ml cuvettes. The dilutions were then stirred and left for at least 6 hours at room temperature. Then the absorbance was measured.

[5] = 120 ppm active (total for mixtures)
[6] = test concentrations 40-700 ppm active

## N,N-didecyl-N-methyl-poly(oxyethyl) ammonium propionate [Bardap-26]
[1]; 40 ppm active
  Reduction obtained in E. coli: ~10^4
[1]; 80 ppm active
  Reduction obtained in E. coli: ~10^4
[1]; [5]
  Reduction obtained in E. coli: 10^4-10^5
[1]; 160 ppm active
  Reduction obtained in E. coli: >10^7
[1]; 200 ppm active
  Reduction obtained in E. coli: >10^7
[1]; 700 ppm active
  Reduction obtained in E. coli: >10^7
[1]; [6]
  Effect on E. coli as summarised in words: good effect
[2]; 40 ppm active
  Reduction obtained in Staphylococcus Aureus: ~10^2
[2]; 80 ppm active
  Reduction obtained in Staphylococcus Aureus: 10^2-10^3
[2]; [5]
  Reduction obtained in Staphylococcus Aureus: 10^2-10^3
[2]; 160 ppm active
  Reduction obtained in Staphylococcus Aureus: >10^7
[2]; 200 ppm active
  Reduction obtained in Staphylococcus Aureus: >10^7
[2]; 700 ppm active
  Reduction obtained in Staphylococcus Aureus: >10^7
[2]; [6]
  Effect on Staphylococcus Aureus as summarised in words: good effect
[3]; 40 ppm active
  Reduction obtained in Candida Albicans: No reduction
[3]; 80 ppm active
  Reduction obtained in Candida Albicans: 10^2-10^3
[3]; [5]
  Reduction obtained in Candida Albicans: ~10^3
[3]; 160 ppm active
  Reduction obtained in Candida Albicans: ~10^4
[3]; 200 ppm active
  Reduction obtained in Candida Albicans: ~10^4
[3]; 700 ppm active
  Reduction obtained in Candida Albicans: 10^4-10^5
[3]; concentration not given
  Reduction of Candida Albicans: 10^4
[3]; [6]
  Effect on Candida Albicans as summarised in words: good effect
[4]
  CMC: 0.7 to 1.0 mmol/L

Reference: patent publication US9719057B2, “Laundry detergent” (Liquid Vanity ApS, priority 2010, dated 2017)
